Experimental data: ChEMBL document CHEMBL4118189, “Discovery of novel N-hydroxy-2-arylisoindoline-4-carboxamides as potent and selective inhibitors of HDAC11” (Bioorg Med Chem Lett, 2018)

Legend:
[1] = Permeability of the compound by PAMPA; type: ADME; conditions: read-out: permeability
[2] = target: T1, Protein deacetylase HDAC6 (Homo sapiens, UniProt Q9UBN7); experiment: Inhibition of full length recombinant human HDAC6 using fluorescent-labeled peptide as substrate by electrophoretic mobility shift assay
T1 sequence (Q9UBN7 whole entry): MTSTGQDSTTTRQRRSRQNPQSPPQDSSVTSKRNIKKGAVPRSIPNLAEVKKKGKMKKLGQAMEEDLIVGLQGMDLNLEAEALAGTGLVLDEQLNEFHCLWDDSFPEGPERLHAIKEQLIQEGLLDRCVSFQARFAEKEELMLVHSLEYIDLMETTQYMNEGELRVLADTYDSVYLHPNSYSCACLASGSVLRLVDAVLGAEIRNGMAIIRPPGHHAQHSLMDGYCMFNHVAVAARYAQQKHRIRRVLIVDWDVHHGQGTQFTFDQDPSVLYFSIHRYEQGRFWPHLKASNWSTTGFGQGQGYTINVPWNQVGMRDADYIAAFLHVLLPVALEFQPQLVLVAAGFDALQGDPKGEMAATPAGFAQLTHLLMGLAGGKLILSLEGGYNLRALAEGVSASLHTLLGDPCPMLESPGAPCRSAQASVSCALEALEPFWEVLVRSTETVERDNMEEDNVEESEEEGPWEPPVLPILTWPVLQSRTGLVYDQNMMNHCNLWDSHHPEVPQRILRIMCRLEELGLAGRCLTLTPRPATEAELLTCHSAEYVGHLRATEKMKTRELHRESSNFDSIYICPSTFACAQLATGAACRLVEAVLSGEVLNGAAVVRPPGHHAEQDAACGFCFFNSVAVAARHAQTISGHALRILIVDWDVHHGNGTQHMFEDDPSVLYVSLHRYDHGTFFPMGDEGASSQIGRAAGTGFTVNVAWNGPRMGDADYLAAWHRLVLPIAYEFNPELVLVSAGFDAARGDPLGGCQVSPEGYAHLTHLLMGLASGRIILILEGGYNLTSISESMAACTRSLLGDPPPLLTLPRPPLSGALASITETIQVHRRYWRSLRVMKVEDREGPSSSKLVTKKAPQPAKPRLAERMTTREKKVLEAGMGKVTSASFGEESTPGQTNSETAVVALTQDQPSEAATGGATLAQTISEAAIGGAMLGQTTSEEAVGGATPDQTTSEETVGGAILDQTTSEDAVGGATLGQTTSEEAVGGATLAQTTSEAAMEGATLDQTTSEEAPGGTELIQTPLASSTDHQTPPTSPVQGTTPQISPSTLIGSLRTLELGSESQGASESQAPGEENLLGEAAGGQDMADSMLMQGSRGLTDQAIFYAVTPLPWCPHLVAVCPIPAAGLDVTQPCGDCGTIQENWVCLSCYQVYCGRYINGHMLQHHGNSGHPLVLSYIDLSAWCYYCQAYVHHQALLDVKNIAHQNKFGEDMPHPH

Histone deacetylase 1 = Histone deacetylase 1 (Homo sapiens, UniProt Q13547); experiment: Inhibition of full length recombinant human HDAC1 using fluorescent-labeled peptide as substrate by electrophoretic mobility shift assay
Sequence of Histone deacetylase 1 (Q13547 whole entry): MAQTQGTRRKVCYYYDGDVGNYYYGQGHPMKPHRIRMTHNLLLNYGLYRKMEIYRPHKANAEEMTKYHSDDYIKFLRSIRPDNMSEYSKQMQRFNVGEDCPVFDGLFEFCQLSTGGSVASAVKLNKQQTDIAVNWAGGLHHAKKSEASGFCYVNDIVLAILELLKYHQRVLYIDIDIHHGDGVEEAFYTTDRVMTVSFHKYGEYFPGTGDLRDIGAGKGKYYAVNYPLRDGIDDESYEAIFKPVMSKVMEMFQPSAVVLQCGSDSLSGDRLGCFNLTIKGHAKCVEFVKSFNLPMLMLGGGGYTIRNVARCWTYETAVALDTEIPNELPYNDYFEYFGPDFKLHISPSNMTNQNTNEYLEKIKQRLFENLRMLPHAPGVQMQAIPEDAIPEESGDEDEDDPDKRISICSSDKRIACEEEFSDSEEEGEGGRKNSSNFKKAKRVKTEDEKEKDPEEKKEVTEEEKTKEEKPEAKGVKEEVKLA

Histone deacetylase 3 = Histone deacetylase 3 (Homo sapiens, UniProt O15379); experiment: Inhibition of full length recombinant human HDAC3 using fluorescent-labeled peptide as substrate by electrophoretic mobility shift assay
Sequence of Histone deacetylase 3 (O15379 whole entry): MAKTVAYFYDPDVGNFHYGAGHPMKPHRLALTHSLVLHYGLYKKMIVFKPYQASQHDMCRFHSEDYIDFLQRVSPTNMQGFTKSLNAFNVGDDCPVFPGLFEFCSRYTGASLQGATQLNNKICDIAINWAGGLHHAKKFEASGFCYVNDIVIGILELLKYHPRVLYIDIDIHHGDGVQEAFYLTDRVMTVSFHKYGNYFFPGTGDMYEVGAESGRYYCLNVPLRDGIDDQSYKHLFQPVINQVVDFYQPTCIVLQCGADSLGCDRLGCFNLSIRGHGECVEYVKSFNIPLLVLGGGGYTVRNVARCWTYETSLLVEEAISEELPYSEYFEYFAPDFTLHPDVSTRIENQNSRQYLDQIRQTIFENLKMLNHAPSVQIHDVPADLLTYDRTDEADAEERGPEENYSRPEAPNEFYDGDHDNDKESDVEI

Histone deacetylase 11 [3] = target: T2, Histone deacetylase 11 (Homo sapiens, UniProt Q96DB2); experiment: Inhibition of full length recombinant human HDAC11 expressed in baculoviral expression system using FAM-RHKK as substrate by electrophoretic mobility shift assay
T2 sequence (Q96DB2 whole entry): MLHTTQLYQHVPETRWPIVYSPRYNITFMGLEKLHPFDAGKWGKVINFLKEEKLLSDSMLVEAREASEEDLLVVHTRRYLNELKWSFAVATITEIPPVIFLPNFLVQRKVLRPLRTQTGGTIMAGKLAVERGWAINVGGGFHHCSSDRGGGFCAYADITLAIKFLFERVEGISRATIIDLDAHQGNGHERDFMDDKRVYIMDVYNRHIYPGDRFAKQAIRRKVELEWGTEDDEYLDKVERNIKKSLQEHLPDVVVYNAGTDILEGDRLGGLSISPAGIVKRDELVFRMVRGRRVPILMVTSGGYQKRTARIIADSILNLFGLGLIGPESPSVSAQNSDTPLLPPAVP

Histone deacetylase 2 = Histone deacetylase 2 (Homo sapiens, UniProt Q92769); experiment: Inhibition of full length recombinant human HDAC2 using fluorescent-labeled peptide as substrate by electrophoretic mobility shift assay
Sequence of Histone deacetylase 2 (Q92769 whole entry): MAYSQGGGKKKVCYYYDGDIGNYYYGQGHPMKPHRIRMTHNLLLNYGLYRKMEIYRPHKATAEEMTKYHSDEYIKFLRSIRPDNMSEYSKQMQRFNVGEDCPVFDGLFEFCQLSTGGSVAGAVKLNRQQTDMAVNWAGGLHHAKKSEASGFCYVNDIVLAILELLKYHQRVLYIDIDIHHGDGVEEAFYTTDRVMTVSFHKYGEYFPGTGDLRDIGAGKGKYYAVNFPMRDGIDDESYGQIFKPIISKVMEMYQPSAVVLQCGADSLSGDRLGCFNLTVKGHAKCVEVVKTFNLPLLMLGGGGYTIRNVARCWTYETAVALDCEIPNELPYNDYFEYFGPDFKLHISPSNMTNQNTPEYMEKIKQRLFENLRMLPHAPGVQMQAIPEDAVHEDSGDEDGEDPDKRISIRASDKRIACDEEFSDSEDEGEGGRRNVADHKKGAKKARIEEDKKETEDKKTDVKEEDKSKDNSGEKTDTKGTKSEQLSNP

Histone deacetylase 7 = target: T3, Histone deacetylase 7 (Homo sapiens, UniProt Q8WUI4); experiment: Inhibition of full length recombinant human HDAC7 using fluorescent-labeled peptide as substrate by electrophoretic mobility shift assay
T3 sequence (Q8WUI4 whole entry): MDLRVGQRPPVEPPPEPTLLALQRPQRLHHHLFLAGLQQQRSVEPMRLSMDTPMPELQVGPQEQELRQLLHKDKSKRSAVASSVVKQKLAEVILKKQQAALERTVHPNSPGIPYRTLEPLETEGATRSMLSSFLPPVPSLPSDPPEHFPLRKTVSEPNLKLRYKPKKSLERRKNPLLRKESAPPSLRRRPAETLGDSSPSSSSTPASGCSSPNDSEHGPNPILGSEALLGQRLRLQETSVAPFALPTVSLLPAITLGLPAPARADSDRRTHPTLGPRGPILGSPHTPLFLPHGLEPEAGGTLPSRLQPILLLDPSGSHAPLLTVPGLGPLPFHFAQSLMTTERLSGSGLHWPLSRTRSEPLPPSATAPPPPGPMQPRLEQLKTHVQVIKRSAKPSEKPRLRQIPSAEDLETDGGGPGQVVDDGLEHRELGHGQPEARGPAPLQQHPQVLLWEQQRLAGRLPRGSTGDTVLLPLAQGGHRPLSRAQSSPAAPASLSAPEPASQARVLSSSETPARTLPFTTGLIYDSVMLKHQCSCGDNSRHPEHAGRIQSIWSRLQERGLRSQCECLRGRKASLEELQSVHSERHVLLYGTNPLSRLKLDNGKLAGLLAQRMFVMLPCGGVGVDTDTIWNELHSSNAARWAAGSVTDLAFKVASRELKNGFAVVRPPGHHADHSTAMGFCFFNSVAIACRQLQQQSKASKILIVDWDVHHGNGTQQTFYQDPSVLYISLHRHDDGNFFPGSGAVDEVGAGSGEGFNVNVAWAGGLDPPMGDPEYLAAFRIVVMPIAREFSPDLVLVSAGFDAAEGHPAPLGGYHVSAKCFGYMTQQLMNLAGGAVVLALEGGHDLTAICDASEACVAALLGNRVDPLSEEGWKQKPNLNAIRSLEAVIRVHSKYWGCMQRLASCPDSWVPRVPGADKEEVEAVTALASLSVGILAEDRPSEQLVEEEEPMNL

Histone deacetylase 5 = Histone deacetylase 5 (Homo sapiens, UniProt Q9UQL6); experiment: Inhibition of full length recombinant human HDAC5 using fluorescent-labeled peptide as substrate by electrophoretic mobility shift assay
Sequence of Histone deacetylase 5 (Q9UQL6 whole entry): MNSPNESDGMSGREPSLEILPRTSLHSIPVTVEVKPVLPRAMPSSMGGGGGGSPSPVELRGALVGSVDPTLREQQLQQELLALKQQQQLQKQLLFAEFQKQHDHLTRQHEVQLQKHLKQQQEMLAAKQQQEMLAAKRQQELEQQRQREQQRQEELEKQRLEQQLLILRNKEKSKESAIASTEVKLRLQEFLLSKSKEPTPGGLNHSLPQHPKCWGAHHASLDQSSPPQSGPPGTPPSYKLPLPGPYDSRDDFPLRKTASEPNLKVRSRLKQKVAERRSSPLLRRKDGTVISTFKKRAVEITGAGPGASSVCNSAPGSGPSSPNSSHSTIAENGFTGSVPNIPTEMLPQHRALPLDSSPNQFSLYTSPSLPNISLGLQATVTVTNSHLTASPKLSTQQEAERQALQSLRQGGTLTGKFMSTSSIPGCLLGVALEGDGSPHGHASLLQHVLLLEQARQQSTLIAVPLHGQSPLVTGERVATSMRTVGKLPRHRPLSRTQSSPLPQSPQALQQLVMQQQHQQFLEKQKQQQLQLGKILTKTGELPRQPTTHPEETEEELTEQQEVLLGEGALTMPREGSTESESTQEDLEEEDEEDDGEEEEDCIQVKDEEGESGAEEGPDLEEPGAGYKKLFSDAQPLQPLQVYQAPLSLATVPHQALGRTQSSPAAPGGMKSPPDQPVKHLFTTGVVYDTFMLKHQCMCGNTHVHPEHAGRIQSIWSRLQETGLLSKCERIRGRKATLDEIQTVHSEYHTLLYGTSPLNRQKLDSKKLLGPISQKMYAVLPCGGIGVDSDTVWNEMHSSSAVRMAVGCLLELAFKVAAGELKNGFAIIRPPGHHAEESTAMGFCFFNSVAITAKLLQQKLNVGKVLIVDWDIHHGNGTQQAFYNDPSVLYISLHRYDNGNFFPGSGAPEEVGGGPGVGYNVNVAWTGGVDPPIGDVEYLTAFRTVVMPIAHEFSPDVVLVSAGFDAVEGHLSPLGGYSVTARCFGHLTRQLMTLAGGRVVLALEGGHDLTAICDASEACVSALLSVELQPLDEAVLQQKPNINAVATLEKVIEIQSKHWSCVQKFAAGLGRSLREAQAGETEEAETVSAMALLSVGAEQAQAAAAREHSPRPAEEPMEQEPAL

[4] = Intrinsic clearance in mouse liver microsomes; type: ADME, microsome; conditions: read-out: CLH
Histone deacetylase 11 [5] = target: T2, Histone deacetylase 11; experiment: Inhibition of NanoLuc-tagged HDAC11 (unknown origin) by BRET assay
Histone deacetylase 4 = Histone deacetylase 4 (Homo sapiens, UniProt P56524); experiment: Inhibition of full length recombinant human HDAC4 using fluorescent-labeled peptide as substrate by electrophoretic mobility shift assay
Sequence of Histone deacetylase 4 (P56524 whole entry): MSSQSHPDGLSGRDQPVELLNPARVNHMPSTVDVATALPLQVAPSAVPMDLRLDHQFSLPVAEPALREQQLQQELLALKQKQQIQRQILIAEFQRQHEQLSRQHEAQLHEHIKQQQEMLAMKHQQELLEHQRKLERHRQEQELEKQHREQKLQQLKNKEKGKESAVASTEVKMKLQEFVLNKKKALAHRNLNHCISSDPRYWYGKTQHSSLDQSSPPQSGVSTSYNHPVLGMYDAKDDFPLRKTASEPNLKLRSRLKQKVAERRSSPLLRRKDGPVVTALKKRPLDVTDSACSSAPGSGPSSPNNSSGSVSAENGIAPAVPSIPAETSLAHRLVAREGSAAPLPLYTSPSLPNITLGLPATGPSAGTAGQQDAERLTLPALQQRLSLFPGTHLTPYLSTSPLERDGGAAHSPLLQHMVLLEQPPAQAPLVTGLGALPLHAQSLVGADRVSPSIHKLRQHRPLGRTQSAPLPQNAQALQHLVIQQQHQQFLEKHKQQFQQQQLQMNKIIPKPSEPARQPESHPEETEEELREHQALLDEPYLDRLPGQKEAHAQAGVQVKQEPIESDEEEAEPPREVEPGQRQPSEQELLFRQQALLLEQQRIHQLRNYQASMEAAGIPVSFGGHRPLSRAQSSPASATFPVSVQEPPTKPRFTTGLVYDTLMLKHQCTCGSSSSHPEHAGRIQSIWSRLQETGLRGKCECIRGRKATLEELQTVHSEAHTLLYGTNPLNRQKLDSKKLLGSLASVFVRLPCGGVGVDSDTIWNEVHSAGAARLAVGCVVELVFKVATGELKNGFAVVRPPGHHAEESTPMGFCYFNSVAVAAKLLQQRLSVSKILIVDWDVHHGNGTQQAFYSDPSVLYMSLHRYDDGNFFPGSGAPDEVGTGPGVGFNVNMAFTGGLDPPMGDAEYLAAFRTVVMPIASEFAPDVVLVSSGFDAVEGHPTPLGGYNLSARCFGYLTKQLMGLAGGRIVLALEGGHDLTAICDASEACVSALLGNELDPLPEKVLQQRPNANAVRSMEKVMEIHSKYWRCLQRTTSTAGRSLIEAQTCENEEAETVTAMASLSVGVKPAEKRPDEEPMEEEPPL

- Papp [1]: 17 ×10⁻⁶ cm/s
- IC50 [2]: > 10 µM
- IC50 (Histone deacetylase 1): > 10 µM
- IC50 (Histone deacetylase 3): > 10 µM
- IC50 (Histone deacetylase 11 [3]): > 10 µM
- IC50 (Histone deacetylase 2): > 10 µM
- IC50 (Histone deacetylase 7): > 10 µM
- IC50 (Histone deacetylase 5): > 10 µM
- microsomal CLint [4]: 7 µL/min/mg
- IC50 (Histone deacetylase 11 [5]): > 25 µM
- IC50 (Histone deacetylase 4): > 10 µM
Compound: CC1(C)c2cccc(C(N)=O)c2CN1c1cnc(C(F)(F)F)cn1
